Laboratory results as given in paper PMC8976278, “Hesperidin identified from Citrus extracts potently inhibits HCV genotype 3a NS3 protease” (BMC Complementary Medicine and Therapies, 2022).
≈ marks a conversion by molar mass, not a printed value. Like-named read-outs stand apart in the source and are kept apart here.

What was measured:
HCV NS3 protease = system: HCV NS3 protease; set-up: method as in earlier work; settings: ref [49], [50]; Table S3 ref [1], [2]; cited from earlier work
[1] = molecular target: NS3-NS4A protease of HCV genotype-3a (Hepatitis C virus genotype 3a, UniProt Q81258); experiment: FRET assay of NS3-NS4A protease activity with depsipeptide substrate; format: biochemical; set-up: Activity, Slope trial 1st / Activity, Slope trial 2nd / Activity, Slope trial 3rd: unit not given here
Description: For measuring the protease activity, a FRET assay was performed using a depsipeptide substrate, Ac-Asp-Glu-Asp-(EDANS)-Glu-Glu-Abu-ψ-[COO]-Ala-Ser-Lys(DABCYL)-NH2 (AnaSpec,US). The fluorescence signal generated upon cleavage of the depsipeptide substrate by the NS3 protease domain was continuously recorded using excitation and emission wavelengths of 355 nm and 510 nm, respectively, and a fluorescence microplate reader (TECAN, US). In the case of the full-length NS3 protease, the reaction buffer (50 mM HEPES, pH 7.5, 0.4% Triton X-100, 10 mM DTT (Thermo Fisher Scientific), 3% DMSO (Thermo Fisher Scientific), and 40% glycerol) was pre-incubated (at 30 °C for 10 min) with 25 µM of a synthetic peptide, […] (purchased from LifeTein LLC, US), representing the core of the NS4A cofactor required for the catalytic activity. For the FRET assay, 1 nM of the full-length NS3 protease was used. In the case of NS3-NS4A, the protein (0.5 nM) was incubated in the reaction buffer at 30 °C for 10 min (without the synthetic peptide). The reaction was initiated by the addition of the substrate (10 µL) in a two-fold serial dilution up to a concentration of 2 µM. Reaction wells without the substrate were used as negative controls. For correction of the inner filter effect, a previously described procedure was followed. Kinetic parameters (such as kcat, Km, and kcat/Km) were calculated using the Michaelis–Menten equation. Data were fitted to the equation by non-linear regression using the GraphPad Prism® software (version 7.04, GraphPad Prism®, Inc., USA).
For validation of the FRET assay, commercially available inhibitors (asuanaprevir, ciluprevir, danoprevir, and telaprevir (purchased from AdooQ® Bioscience, US) were used to inhibit the activity of the target enzyme (NS3-NS4A protease of HCV genotype-3a), as described previously. Briefly, 1 µM of the depsipeptide substrate was added to the protein, pre-incubated with a given inhibitor, and fluorescence measurements were recorded for 20, 30, or 60 min using 355 nm and 510 nm as excitation and emission wavelengths, respectively. The IC50 value, representing the half-maximal inhibitory concentration, of each commercial inhibitor was calculated using the GraphPad Prism® software (version 7.04, GraphPad Prism®, Inc., USA). The experiment was performed in triplicates, and the average value obtained was considered as the IC50 value.
Reaction mixtures (300 µL) were prepared in the assay buffer (50 mM HEPES, pH 7.5, 0.4% Triton X-100, 10 mM DTT, and 40% glycerol). For initial screening, 3.33 mg of the plant extract was dissolved in 1 mL DMSO, and was transferred to the reaction buffer such that the final concentration of DMSO was 3%. The reaction was initiated by adding 0.5 nM NS3-NS4A protease, and the released RET S1 FRET substrate was monitored using a fluorescence microplate reader (TECAN). Reaction mixtures (also containing 3% DMSO) without any plant extract were used for recording blank measurements. The background fluorescence contributed by the plant extract was also recorded. For calculation of the calibration curve, spiking with known amounts (0.25 µM, 0.5 µM, 1 µM, and 2 µM) of the free FRET substrate (RET S1) was made while keeping the reaction mixture at the same volume, containing all the constituents (the plant extract, the assay buffer as well as the enzyme). Slope of the curve was correlated with that obtained from free FRET substrate concentrations without any plant extract as well as the substrate. Initial reaction rates were calculated, and the percentage (%) enzyme inhibition was calculated using the equation: 100 x [a-b/a] where “a” refers to the fluorescence value generated by the reaction mixture only (without the plant extract) and “b” is the solution fluorescence in the presence of the plant extract. […]

[2] = molecular target: NS3 protease domain of HCV genotype 3a fused to the cognate NS4A cofactor (NS3-NS4A) (hepatitis C virus genotype 3a)
[3] = FRET assay validation, 1 µM depsipeptide substrate, triplicates, read-out: IC50 value (commercial inhibitors) (converted)

NS3-NS4A protease of HCV genotype-3a, sequence (Q81258 1033-1213, other chains not shown): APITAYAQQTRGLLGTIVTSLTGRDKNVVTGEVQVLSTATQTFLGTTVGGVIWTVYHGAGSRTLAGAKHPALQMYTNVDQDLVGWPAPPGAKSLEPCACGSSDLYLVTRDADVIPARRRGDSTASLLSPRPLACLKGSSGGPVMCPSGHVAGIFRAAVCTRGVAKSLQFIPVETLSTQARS

Compound | IC50 value [reported in the literature] (HCV NS3 protease) | IC50 [1, 3] | Activity, Slope trial 1st ([1]; inhibitor conc. 1.3717 nM) | Activity, Slope trial 2nd ([1]; inhibitor conc. 1.3717 nM) | Activity, Slope trial 3rd ([1]; inhibitor conc. 1.3717 nM) | Average Slope ([1]; inhibitor conc. 1.3717 nM) | Activity, Slope trial 1st ([1]; inhibitor conc. 4.1152 nM) | Activity, Slope trial 2nd ([1]; inhibitor conc. 4.1152 nM) | Activity, Slope trial 3rd ([1]; inhibitor conc. 4.1152 nM) | Average Slope ([1]; inhibitor conc. 4.1152 nM) | Activity, Slope trial 1st ([1]; inhibitor conc. 12.3456 nM) | Activity, Slope trial 2nd ([1]; inhibitor conc. 12.3456 nM) | Activity, Slope trial 3rd ([1]; inhibitor conc. 12.3456 nM) | Average Slope ([1]; inhibitor conc. 12.3456 nM) | Activity, Slope trial 1st ([1]; inhibitor conc. 37.037 nM) | Activity, Slope trial 2nd ([1]; inhibitor conc. 37.037 nM) | Activity, Slope trial 3rd ([1]; inhibitor conc. 37.037 nM) | Average Slope ([1]; inhibitor conc. 37.037 nM) | Activity, Slope trial 1st ([1]; inhibitor conc. 111.1111 nM) | Activity, Slope trial 2nd ([1]; inhibitor conc. 111.1111 nM) | also measured
CC(C)(C)OC(=O)N[C@H]1CCCCC/C=C\[C@@H]2C[C@@]2(C(=O)NS(=O)(=O)C2CC2)NC(=O)[C@@H]2C[C@@H](OC(=O)N3Cc4cccc(F)c4C3)CN2C1=O [Danoprevir] | 0.0146 µg/mL (≈ 0.0199 µM) | 25.1 nM | 1.677 | 2.153 | 9.123 | 4.31 | 1.449 | 1.834 | 9.072 | 4.11 | 0.991 | 0.979 | 5.934 | 2.63 | 0.450 | 0.460 | 2.283 | 1.06 | 0.196 | 0.174 | Activity, Slope trial 3rd ([1]; inhibitor conc. 111.1111 nM): 0.757; Average Slope ([1]; inhibitor conc. 111.1111 nM): 0.37; Activity, Slope trial 1st ([1]; inhibitor conc. 333.3333 nM): 0; Activity, Slope trial 2nd ([1]; inhibitor conc. 333.3333 nM): 0.039; Activity, Slope trial 3rd ([1]; inhibitor conc. 333.3333 nM): 0.003151; Average Slope ([1]; inhibitor conc. 333.3333 nM): 0.01; Activity, Slope trial 1st ([1]; inhibitor conc. 1000 nM): 0; Activity, Slope trial 2nd ([1]; inhibitor conc. 1000 nM): 0; Activity, Slope trial 3rd ([1]; inhibitor conc. 1000 nM): 0; Average Slope ([1]; inhibitor conc. 1000 nM): 0
depsipeptide substrate Ac-Asp-Glu-Asp-(EDANS)-Glu-Glu-Abu-ψ-[COO]-Ala-Ser-Lys(DABCYL)-NH2 |  |  |  |  |  |  |  |  |  |  |  |  |  |  |  |  |  |  |  |  | Km of cleavage of the depsipeptide substrate by NS3-NS4A (0.5 nM) in the FRET protease assay, Michaelis-Menten fit [2]: 8.79 µM
C=C[C@@H]1C[C@]1(NC(=O)[C@@H]1C[C@@H](Oc2ncc(OC)c3ccc(Cl)cc23)CN1C(=O)[C@@H](NC(=O)OC(C)(C)C)C(C)(C)C)C(=O)NS(=O)(=O)C1CC1 [Asunaprevir] |  | 68.3 nM |  |  |  |  |  |  |  |  |  |  |  |  |  |  |  |  |  |  | 
COc1ccc2c(O[C@@H]3C[C@H]4C(=O)N[C@]5(C(=O)O)C[C@H]5/C=C\CCCCC[C@H](NC(=O)OC5CCCC5)C(=O)N4C3)cc(-c3csc(NC(C)C)n3)nc2c1 [Ciluprevir] |  | 53.2 nM |  |  |  |  |  |  |  |  |  |  |  |  |  |  |  |  |  |  | 
O=c1oc2c(O)c(O)cc3c(=O)oc4c(O)c(O)cc1c4c23 [Ellagic acid] |  |  |  |  |  |  |  |  |  |  |  |  |  |  |  |  |  |  |  |  | IC50 ([1]; commercially obtained pure compound, hesperidin 1230 to 1.67 µg/mL, read-out: IC50 value (pure natural compound) (converted)): 98000 nM
CCC[C@H](NC(=O)[C@@H]1[C@H]2CCC[C@H]2CN1C(=O)[C@@H](NC(=O)[C@@H](NC(=O)c1cnccn1)C1CCCCC1)C(C)(C)C)C(=O)C(=O)NC1CC1 [Telaprevir] | 0.0387 µg/mL (≈ 0.0569 µM) | 69.9 nM | 4.176 | 2.087 | 2.395 | 2.88 | 4.77 | 3.604 | 1.309 | 3.22 | 3.041 | 1.613 | 2.131 | 2.26 | 3.796 | 1.828 | 1.004 | 2.20 | 1.774 | 1.116 | Activity, Slope trial 3rd ([1]; inhibitor conc. 111.1111 nM): 0.627; Average Slope ([1]; inhibitor conc. 111.1111 nM): 1.17; Activity, Slope trial 1st ([1]; inhibitor conc. 333.3333 nM): 0.5776; Activity, Slope trial 2nd ([1]; inhibitor conc. 333.3333 nM): 0.3406; Activity, Slope trial 3rd ([1]; inhibitor conc. 333.3333 nM): 0.163; Average Slope ([1]; inhibitor conc. 333.3333 nM): 0.36; Activity, Slope trial 1st ([1]; inhibitor conc. 1000 nM): 1.246; Activity, Slope trial 2nd ([1]; inhibitor conc. 1000 nM): 0.081; Activity, Slope trial 3rd ([1]; inhibitor conc. 1000 nM): 0; Average Slope ([1]; inhibitor conc. 1000 nM): 0.44
